Measurements from paper PMC9457736, “Dual Inhibition of HIV-1 and Cathepsin L Proteases by Sarcandra glabra” (Molecules, 2022).
Where two headings read alike, the source gives them in different places.

Key:
[1] = target: T1, recombinant HIV-1 protease (wild type) (Human immunodeficiency virus type 1 group M subtype B, UniProt P04585); test: FRET assay of HIV-1 protease inhibition; type: biochemical; settings: for inhibition at 1000 µg/mL / HIV-1 PR Inhibition (%) ± SD at 1.0 (mg/mL): 1.0 mg/mL; for inhibition at 1000 µg/mL / HIV-1 PR Inhibition (%) ± SD at 1.0 (mg/mL) / IC50 ± RSD% HIV-1 PR: n = 3; for inhibition at 1000 µg/mL: read-out: HIV-1 PR Inhibition (%) ± SD at 1.0 (mg/mL)
T1 construct: 8 μL of recombinant HIV-1 protease (wild type); purchased AnaSpec Inc
Method: Enzyme activities of HIV-1, Cathepsin L, and renin proteases were determined by a FRET assay, following the manufacturer’s protocol. Briefly, the HIV-1 PR activity was assayed using 384-well microplates with a well volume of 120 μL (Corning Incorporated, Corning, NY, USA). […] Reactions were then initiated by adding 10 μL of the HIV protease substrate (50X dilution with assay buffer). Fluorescence was measured using a EX/Em = 490/520 nm filter module on a Synergy II microplate reader. […] Briefly, 2 μL test compound solutions (0.01~1.0 mg/mL) and 8 µL of human recombinant Cathepsin L protease (200× dilution with DTT-containing assay buffer, final concentration: 0.5 µg/mL) were added in the microplate wells. The microplate was pre-incubated at room temperature for 10 min. The enzymatic reaction was subsequently initiated by adding 10 μL of freshly diluted Cathepsin L substrate solution (100× dilution with assay buffer, final concentration: 0.01 mM) into each well. The microplate was gently shaken for 30 s before being incubated at 37 °C for 30 min. Fluorescence was measured at an emission of 520 nm and excitation of 490 nm. A Cathepsin L inhibitor, (100× dilution with assay buffer, final concentration: 1 µM) was used as a positive control. IC50 values of tested compounds were calculated by Microsoft Office Excel software using three different concentrations.

[2] = target: T2, human recombinant Cathepsin L protease (Homo sapiens, UniProt P07711); test: FRET assay of Cathepsin L protease inhibition (SensoLyte 520 kit); type: biochemical; settings: for inhibition at 10 µg/mL: read-out: CatL PR Inhibition (%) ± SD at 0.01 (mg/mL)
T2 construct: purchased AnaSpec Inc. SensoLyte 520 Cathepsin L Protease Assay Kit, Lot#: AS72218-1010
Method: Enzyme activities of HIV-1, Cathepsin L, and renin proteases were determined by a FRET assay, following the manufacturer’s protocol. Briefly, the HIV-1 PR activity was assayed using 384-well microplates with a well volume of 120 μL (Corning Incorporated, Corning, NY, USA). Then, 8 μL of recombinant HIV-1 protease (wild type, NCBI accessiob: NC-001802, final concentration: 0.01 mg/mL (80 ng/well), AnaSpec Inc., Fremont, San Jose, CA, USA) was mixed with 2 μL of the test compounds (0.01~1.0 mg/mL). Reactions were then initiated by adding 10 μL of the HIV protease substrate (50X dilution with assay buffer). Fluorescence was measured using a EX/Em = 490/520 nm filter module on a Synergy II microplate reader. To evaluate the inhibitory activity of the test compounds towards Cathepsin L protease, fluorimetric SensoLyte^TM 520 Cathepsin L Protease Assay Kit (Lot#: AS72218-1010, AnaSpec Inc. San Jose, CA, USA) was used. Briefly, 2 μL test compound solutions (0.01~1.0 mg/mL) and 8 µL of human recombinant Cathepsin L protease (200× dilution with DTT-containing assay buffer, final concentration: 0.5 µg/mL) were added in the microplate wells. The microplate was pre-incubated at room temperature for 10 min. The enzymatic reaction was subsequently initiated by adding 10 μL of freshly diluted Cathepsin L substrate solution (100× dilution with assay buffer, final concentration: 0.01 mM) into each well. The microplate was gently shaken for 30 s before being incubated at 37 °C for 30 min. Fluorescence was measured at an emission of 520 nm and excitation of 490 nm. A Cathepsin L inhibitor, (100× dilution with assay buffer, final concentration: 1 µM) was used as a positive control. IC50 values of tested compounds were calculated by Microsoft Office Excel software using three different concentrations.

T2 sequence (P07711 114-333): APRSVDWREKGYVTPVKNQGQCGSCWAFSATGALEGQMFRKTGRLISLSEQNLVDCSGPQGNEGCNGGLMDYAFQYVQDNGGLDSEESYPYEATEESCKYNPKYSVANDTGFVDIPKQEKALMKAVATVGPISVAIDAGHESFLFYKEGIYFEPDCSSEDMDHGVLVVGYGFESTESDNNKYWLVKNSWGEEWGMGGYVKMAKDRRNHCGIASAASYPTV

| HIV-1 PR Inhibition (%) ± SD at 1.0 (mg/mL) ([1]; listed as 3,4-dicaffeoylquinic acid) | Structure (SMILES) | inhibition at 1000 µg/mL [1] [%] | inhibition at 10 µg/mL ([2]; 0.01 mg/mL, n = 3) [%] | inhibition of CatL PR (in words) [2] | inhibition at 10 µg/mL [2] [%] | IC50 [1] [µM] | HIV-1 PR Inhibition (%) ± SD at 1.0 (mg/mL) [1] [%] | IC50 ± RSD% HIV-1 PR [1] [%] |
| --- | --- | --- | --- | --- | --- | --- | --- | --- |
| – | C[N+](C)(C)CC(=O)O [Compound 1, Betaine] | 8.95 ± 4.61 | -15.5 ± 5.76 | – | – | – | – | – |
| – | O=C(O)[C@]1(O)C[C@@H](O)[C@@H](O)[C@H](O)C1 [Compound 2, D-(-)-Quinic acid] | -20.1 ± 2.61 | – | no inhibition | -0.32 ± 8.61 | – | – | – |
| – | COc1ccc(C(C)=O)c(O)c1 [Compound 3, Paeonol] | -12.6 ± 0.26 | -15 ± 0.56 | – | – | – | – | – |
| – | O=C(O)c1ccc(O)c(O)c1 [Compound 4, Protocatechuic acid] | 47.9 ± 1.82 | – | – | 42.1 ± 2.25 | – | – | – |
| – | O=C(/C=C/c1ccc(O)c(O)c1)O[C@@H]1C[C@](O)(C(=O)O)C[C@@H](O)[C@H]1O [Compound 5, Chlorogenic acid] | – | 40.8 ± 2.54 | – | – | – | – | – |
| – | O=c1ccc2ccc(O)cc2o1 [Compound 6, 7-Hydroxycoumarine] | 28.9 ± 4.41 | 22.6 ± 0.53 | – | – | – | – | – |
| – | O=C(O)/C=C/c1ccc(O)c(O)c1 [Compound 7, Caffeic acid] | > 50 | 32.1 ± 1.68 | – | – | 2660 | 65.9 ± 0.00 | 0.48 ± 0.124 |
| – | COc1cc2ccc(=O)oc2c(O)c1O [Compound 8, Fraxetin] | 24.1 ± 6.7 | 15 ± 5.25 | – | – | – | – | – |
| – | C[C@@H]1O[C@@H](O[C@H]2C(=O)c3c(O)cc(O)cc3O[C@@H]2c2ccc(O)c(O)c2)[C@H](O)[C@H](O)[C@H]1O [Compound 9, Astilbin] | > 50 | -24.7 ± 8.14 | – | – | – | 68.4 ± 5.45 | 0.54 ± 4.34 |
| – | COc1cc2ccc(=O)oc2c(OC)c1O [Compound 10, Isofraxidin] | -2.09 ± 8.57 | 27 ± 2.37 | – | – | – | – | – |
| more than 50% | O=C(C=Cc1ccc(O)c(O)c1)OC1CC(O)(C(=O)O)CC(O)C1OC(=O)C=Cc1ccc(O)c(O)c1 (stereo not shown) [Compound 11, 3,4-Dicaffeoylquinic acid] | – | -31.3 ± 6.24 | no inhibition | – | 252 | 86.1 ± 3.92 | 0.13 ± 2.84 |
| – | O=C(/C=C/c1ccc(O)c(O)c1)O[C@H](Cc1ccc(O)c(O)c1)C(=O)O [Compound 12, Rosmarinic acid] | – | 19.2 ± 1.7 | – | – | – | – | – |
| – | COc1cc(O)cc2c1C(=O)C[C@@H](c1ccccc1)O2 [Compound 13, Alpinetin] | > 50 | 11.9 ± 8.99 | – | – | – | 62.3 ± 0.96 | 0.62 ± 3.44 |
| – | C[C@@H]1CC[C@H]2[C@@H](C)C(=O)O[C@@H]3O[C@@]4(C)CC[C@@H]1[C@]32OO4 [Compound 14, Artemisinin] | > 50 | -1.1 ± 0.52 | – | – | – | 50.8 ± 0.58 | 0.95 ± 2.77 |
